Experimental data: US12358914B2, “Preparation method and use of pyrazole compound containing 1-(3,4-dimethoxyphenyl)-β-carboline unit” (NANTONG UNIVERSITY, priority 2020, dated 2025)
pIC50: −log10 of the molar value.

Tested on: Human gastric cancer cell HGC-27
Assay: In-vitro anti-tumor activity test by MTT method
Assay type: cell-based
Settings: HGC-27 cells, 24 hours incubation with compound, OD 570 nm
Experimental: Anti-Tumor Activity Test of Compounds
The in-vitro anti-tumor activity of the compounds was tested by tetramethylazoazole colorimetric (MTT) method. Human gastric cancer cell HGC-27 was used as a test cell. 5-fluorouracil (5-FU) was selected as the positive control drug. Human gastric cancer cell HGC-27 in the exponential growth phase was made into a cell suspension with 4×10^3 cells/mL, inoculated in a 96-well plate, and cultured in a CO2 incubator for 36 hours. The test solution (10 μL) of the compound to be tested was added into the test wells, with parallel wells being set for each concentration. The same amount of DMSO was used as a blank control. The plate was incubated in a CO2 incubator for 24 hours, then the supernatant was discarded, and 10 μL of 5% MTT was added to each well. Then the plate was incubated for 4 hours, and the supernatant was sucked and discarded. Subsequently, 100 μL of DMSO was added to each well, and the plate was shaken in a shaker for 20 minutes. The OD value was measured with a microplate reader at a wavelength of 570 nm, and the cell inhibition rate was calculated. Cell inhibition rate=(OD value of negative control group−OD value of tested substance group)/OD value of negative control group×100%. The IC50 value of each compound was calculated by the probability unit weighted regression method.

COc1ccc(-c2nc(C(=O)N/N=C/c3c(C)nn(C)c3Oc3ccc(F)cc3)cc3c2[nH]c2ccccc23)cc1OC [Ic] and COc1ccc(-c2nc(C(=O)N/N=C/c3c(C)nn(C)c3Oc3ccc(Cl)cc3)cc3c2[nH]c2ccccc23)cc1OC [Ia] are within 0.2 log units of each other in pIC50: 5.15 for the first, 5.00 for the second.

COc1ccc(Oc2c(/C=N/NC(=O)c3cc4c([nH]c5ccccc54)c(-c4ccc(OC)c(OC)c4)n3)c(C)nn2C)cc1 [Ib] and COc1ccc(-c2nc(C(=O)N/N=C/c3c(C)nn(C)c3Oc3ccc(F)cc3F)cc3c2[nH]c2ccccc23)cc1OC [Id] are within 0.2 log units of each other in pIC50: 5.72 for the first, 5.90 for the second.

For O=c1[nH]cc(F)c(=O)[nH]1 [Compound 5-FU, 5-fluorouracil, reference compound], the pIC50 was 4.47.
